Consider 37 compounds from ChEMBL document CHEMBL4483862, “Open-source discovery of chemical leads for next-generation chemoprotective antimalarials” (2018).

As a reminder, the IC50 is the concentration needed to halve the response being measured. The term IC90 denotes the concentration at which the effect reaches the 90% level.

For the experiment, the system named is Plasmodium berghei. Kind of experiment: Luciferase/luciferin-expressing antifolate-resistant parasites were used to infect a culture of HepG2 cells that were pre-incubated with compounds. Infected hepatocytes emit light due to the luciferase reaction. Assay results are presented as the percent inhibition of light emission compared to control. […]. It counts as functional. The note with it: sporozoite; for IC90: read-out: LUCIFERASE INFECTION ASSAY - IC90.

The mark [1] stands for this setting: read-out: LUCIFERASE INFECTION ASSAY - IC50.

SMILES strings stand for the structures.

In the case of `COc1ccccc1NC(=O)/C=c1\s/c(=C\c2cnn(-c3ccccc3)c2)c(=O)n1C`, the IC90 was 0.632 µM. Further, the IC50 (HEPG2TOX_HILL_SLOPE 1.6, HEPG2TOX_R_SQUARED 0.888, PBLUC_HILL_SLOPE 1.61, PBLUC_R_SQUARED 0.941, read-out: LUCIFERASE INFECTION ASSAY - IC50) came to 0.161 µM.
`CSc1nnc(-c2ccc(C(C)(C)C)cc2)[nH]1`: the IC90 turned out to be 10.9 µM. Moreover, under “FFLUC_HILL_SLOPE 15.7, FFLUC_R_SQUARED 0.752, PBLUC_HILL_SLOPE 2.05, PBLUC_R_SQUARED 0.759, read-out: LUCIFERASE INFECTION ASSAY - IC50”, the IC50 was 3.73 µM.
In the case of `Cn1nc(-c2ccccc2)c(-c2nc3ccccc3n2C)c1-c1ccccc1`, the concentration for an effect of 90% (IC90) worked out at 8.97 µM. For the same compound, the IC50 (HEPG2TOX_HILL_SLOPE 2.41, HEPG2TOX_R_SQUARED 0.613, PBLUC_HILL_SLOPE 4.44, PBLUC_R_SQUARED 0.302, read-out: LUCIFERASE INFECTION ASSAY - IC50) is 5.47 µM.
For `CCOC(=O)c1c(C)[nH]c(C(=O)C(C)Sc2nnc(-c3ccccc3)c(-c3ccccc3)n2)c1C` (centres undefined), the concentration for an effect of 90% (IC90) was more than 10 µM. The IC50 under setting [1] was more than 10 µM.
Regarding `CCCCCCCCCCCc1n[nH]c(=S)n1-c1ccccc1C(F)(F)F`, the IC90 is more than 8.26 µM. Besides, under “FFLUC_HILL_SLOPE 1.62, FFLUC_R_SQUARED 0.783, read-out: LUCIFERASE INFECTION ASSAY - IC50”, the concentration for half-maximal inhibition (IC50) was more than 8.26 µM.
As to `Cc1ccc(-n2nnnc2SCc2c(F)cccc2Cl)c(C)c1`, the 90% effect concentration (IC90) was more than 9.46 µM. The IC50 (HEPG2TOX_HILL_SLOPE 2.61, HEPG2TOX_R_SQUARED 0.917, PBLUC_HILL_SLOPE 6.38, PBLUC_R_SQUARED 0.299, read-out: LUCIFERASE INFECTION ASSAY - IC50) amounted to 8.85 µM.
Take `CCOc1cccc(-c2cn3c(-c4ccc5ncccc5c4)cnc3cn2)c1`: the 90% effect concentration (IC90) was 0.0959 µM. For the same compound, the half-maximal inhibitory concentration (IC50) (HEPG2TOX_HILL_SLOPE 1.97, HEPG2TOX_R_SQUARED 0.663, PBLUC_HILL_SLOPE 2.12, PBLUC_R_SQUARED 0.862, read-out: LUCIFERASE INFECTION ASSAY - IC50) was 0.0341 µM.
As to `Cc1onc(-c2c(Cl)cccc2Cl)c1C(=O)ONC(=N)c1c(Cl)cccc1Cl`, the IC90 is more than 7.19 µM. For the same compound, the IC50 (PBLUC_HILL_SLOPE 3.4, PBLUC_R_SQUARED 0.373, read-out: LUCIFERASE INFECTION ASSAY - IC50) was 5.6 µM.
For the compound `NC(=O)c1ccsc1NC(=O)CSc1ncc(-c2ccccc2)n1-c1ccccc1`, the IC90 came to 3.1 µM. The IC50 (HEPG2TOX_HILL_SLOPE 1.27, HEPG2TOX_R_SQUARED 0.954, PBLUC_HILL_SLOPE 1.14, PBLUC_R_SQUARED 0.72, read-out: LUCIFERASE INFECTION ASSAY - IC50) came to 0.447 µM.
Turning to `Cc1cc(-c2cn3c(-c4cccc(O)c4)cnc3cn2)cc(C)c1O`, the IC90 is more than 9.96 µM. Besides, the IC50 (FFLUC_HILL_SLOPE 0.138, FFLUC_R_SQUARED 0.042, HEPG2TOX_HILL_SLOPE 1.55, HEPG2TOX_R_SQUARED 0.983, PBLUC_HILL_SLOPE 3.3, PBLUC_R_SQUARED 0.553, read-out: LUCIFERASE INFECTION ASSAY - IC50) is 6.94 µM.
Turning to `Cc1nc(Cc2nc(-c3ccc(S(C)(=O)=O)cc3)cs2)cs1`, the IC90 is more than 10 µM. Under setting [1], the concentration for half-maximal inhibition (IC50) was more than 10 µM.
With `Fc1ccccc1-n1cnnc1SC(c1ccccc1)c1ccccc1`, the concentration for an effect of 90% (IC90) came to 1.93 µM. The IC50 (PBLUC_HILL_SLOPE 1.8, PBLUC_R_SQUARED 0.792, read-out: LUCIFERASE INFECTION ASSAY - IC50) came to 0.57 µM.
Turning to `O=C1C=C/C(=N/N(Cc2ccccc2)c2ccccc2)O1`, the 90% effect concentration (IC90) is more than 10 µM. For the same compound, under setting [1], the 50% inhibitory concentration (IC50) is more than 10 µM.
As to `C=CCNC(=S)N/N=C/C1=C(N2CCOCC2)C(=C/c2ccc(Cl)cc2Cl)/CC1`, the IC90 was more than 10 µM. Also, the IC50 under setting [1] was more than 10 µM.
On to `O=C(Cn1nc(-c2ccco2)oc1=O)N(Cc1ccccc1)c1ccccc1`, for which the concentration for an effect of 90% (IC90) is more than 10 µM. For the same compound, the IC50 under setting [1] was more than 10 µM.
Turning to `CC1Cc2cc(S(N)(=O)=O)ccc2N1CCCOc1ccc(F)cc1` (centres undefined), the IC90 is more than 10 µM. Further, the IC50 (HEPG2TOX_HILL_SLOPE 3.41, HEPG2TOX_R_SQUARED 0.506, PBLUC_HILL_SLOPE 2.13, PBLUC_R_SQUARED 0.616, read-out: LUCIFERASE INFECTION ASSAY - IC50) amounted to 6.18 µM.
Regarding `Cc1nc(=O)c(CCC(=O)Nc2ncc(Cc3cccc(C)c3Cl)s2)c(C)[nH]1`, the 90% effect concentration (IC90) was more than 10 µM. The IC50 under setting [1] is 8.8 µM.
For `CN(C)CCNS(=O)(=O)c1ccc(Cl)c([N+](=O)[O-])c1` the same measures were more than 10 µM and more than 10 µM.
For `CC1CCc2nc3ccccc3c(C(=O)OCCOc3ccccc3Cl)c2C1` (centres undefined) the same measures were more than 10 µM and more than 10 µM.
For `NC(c1csc(Nc2cc(NCc3ccco3)ncn2)n1)C1CCCCC1` (centres undefined) the same measures were more than 8.58 µM and more than 8.58 µM.
Turning to `O=c1c(Cl)c(Cl)cnn1Cc1nnc(-c2ccc(Cl)cc2)o1`, the 90% effect concentration (IC90) was more than 10 µM. In addition, for the setting “FFLUC_HILL_SLOPE 3.65, FFLUC_R_SQUARED 0.9, HEPG2TOX_HILL_SLOPE 4.48, HEPG2TOX_R_SQUARED 0.522, PBLUC_HILL_SLOPE 7.32, PBLUC_R_SQUARED 0.182, read-out: LUCIFERASE INFECTION ASSAY - IC50”, the IC50 was 7.44 µM.
As to `COC(=O)c1c(-c2c(Cl)cccc2Cl)noc1CC=Nc1ccc(C(=O)O)cc1`, the IC90 is more than 7.62 µM. The IC50 (HEPG2TOX_HILL_SLOPE 0.693, HEPG2TOX_R_SQUARED 0.602, read-out: LUCIFERASE INFECTION ASSAY - IC50) is more than 7.62 µM.
For the compound `CC(C)COc1ccc(NC(=O)c2ccnn2C)cc1Cl`, the IC90 was more than 10 µM. Also, the IC50 (PBLUC_HILL_SLOPE 14.7, PBLUC_R_SQUARED 0.488, read-out: LUCIFERASE INFECTION ASSAY - IC50) worked out at 9.12 µM.
For `CO/N=C1\CC(C)(C)Cc2c(-c3ccn(C(=O)Nc4ccc(Cl)cc4)n3)sc(SC)c21`, the 90% effect concentration (IC90) was more than 6.95 µM. The IC50 under setting [1] was more than 6.95 µM.
`CC(C)(C)c1ccc(OS(=O)(=O)c2ccc(-c3csnn3)s2)cc1`: the 90% effect concentration (IC90) was more than 8.67 µM. Further, for the setting “HEPG2TOX_HILL_SLOPE 1.63, HEPG2TOX_R_SQUARED 0.666, PBLUC_HILL_SLOPE 2.62, PBLUC_R_SQUARED 0.635, read-out: LUCIFERASE INFECTION ASSAY - IC50”, the IC50 worked out at 5.74 µM.
For the compound `COc1cccc(NC(=O)c2csc(C(O)c3cccc(C(F)(F)F)c3)n2)c1` (centres undefined), the IC90 was more than 10 µM. Besides, the IC50 under setting [1] is more than 10 µM.
Consider `CNC(=O)c1ccc(CN(C2CC2)S(=O)(=O)c2cc(C)ccc2C)cc1`, for which the 90% effect concentration (IC90) was 5.44 µM. For the same compound, the IC50 (HEPG2TOX_HILL_SLOPE 1.06, HEPG2TOX_R_SQUARED 0.677, PBLUC_HILL_SLOPE 1.71, PBLUC_R_SQUARED 0.782, read-out: LUCIFERASE INFECTION ASSAY - IC50) was 1.51 µM.
As to `COc1ccc(NS(=O)(=O)c2cc(NC(=O)c3cc(S(=O)(=O)Nc4ccc(Cl)cc4)ccc3Cl)ccc2N2CCOCC2)cc1`, the IC90 was more than 10 µM. Also, the half-inhibitory concentration (IC50) under setting [1] is more than 10 µM.
`CCOc1ccc(OS(=O)(=O)c2ccc(-n3ncc(Cl)c(Cl)c3=O)cc2)cc1`: the IC90 was found to be 3.34 µM. The half-maximal inhibitory concentration (IC50) (FFLUC_HILL_SLOPE 1.43, FFLUC_R_SQUARED 0.409, HEPG2TOX_HILL_SLOPE 3.88, HEPG2TOX_R_SQUARED 0.973, PBLUC_HILL_SLOPE 4.23, PBLUC_R_SQUARED 0.659, read-out: LUCIFERASE INFECTION ASSAY - IC50) is 1.99 µM.
On to `Cc1ccc(C(CCNCc2ccc(F)cc2)c2ccco2)cc1` (centres undefined), for which the 90% effect concentration (IC90) was determined as 0.384 µM. Also, under “HEPG2TOX_HILL_SLOPE 46.4, HEPG2TOX_R_SQUARED 0.442, PBLUC_HILL_SLOPE 99.4, PBLUC_R_SQUARED 0.619, read-out: LUCIFERASE INFECTION ASSAY - IC50”, the IC50 is 0.376 µM.
Regarding `CS(=O)(=O)N1CCCC(C(=O)NC(c2ccccc2)C2CCCCC2)C1` (centres undefined), the IC90 was more than 10 µM. Besides, the 50% inhibitory concentration (IC50) under setting [1] was more than 10 µM.
For `O=C(/C=C/c1cn(-c2ccccc2)nc1-c1cccnc1)Nc1nc(-c2ccccn2)cs1`, the IC90 amounted to 8.39 µM. In addition, the IC50 under setting [1] is 5.33 µM.
As for `CC(C)n1ncc2cc(NC(=O)c3cccc(S(=O)(=O)NCc4ccccc4)c3)cnc21`, the IC90 is more than 10 µM. Besides, the IC50 (PBLUC_HILL_SLOPE 1.68, PBLUC_R_SQUARED 0.408, read-out: LUCIFERASE INFECTION ASSAY - IC50) amounted to 6.12 µM.
As for `COc1cccc(NC(=O)Nc2nc(-c3cc4ccccc4o3)cs2)c1`, the concentration for an effect of 90% (IC90) was 7.91 µM. Besides, under “PBLUC_HILL_SLOPE 6.07, PBLUC_R_SQUARED 0.713, read-out: LUCIFERASE INFECTION ASSAY - IC50”, the IC50 is 5.5 µM.
For `CC(C)(NCC(=O)Nc1ccccc1C(N)=O)c1ccc2c(c1)OCO2`, the 90% effect concentration (IC90) is more than 10 µM. Besides, the 50% inhibitory concentration (IC50) (PBLUC_HILL_SLOPE 7.96, PBLUC_R_SQUARED 0.17, read-out: LUCIFERASE INFECTION ASSAY - IC50) was more than 10 µM.
As to `Cc1c(-c2ccccc2)oc2c(C(=O)Nc3ccc(N4CCOCC4)c4ccncc34)cccc2c1=O`, the concentration for an effect of 90% (IC90) is more than 10 µM. Further, the IC50 (PBLUC_HILL_SLOPE 15.7, PBLUC_R_SQUARED 0.205, read-out: LUCIFERASE INFECTION ASSAY - IC50) turned out to be 9.81 µM.
As to `Cc1ccc(Nc2nnc(SC(C)C(=O)NC(C)c3ccc(F)cc3)s2)cc1` (centres undefined), the concentration for an effect of 90% (IC90) is more than 10 µM. Besides, the IC50 (PBLUC_HILL_SLOPE 2.15, PBLUC_R_SQUARED 0.495, read-out: LUCIFERASE INFECTION ASSAY - IC50) was 4.9 µM.
